Assay results published in patent US8633005B2, “Isocyclomaltooligosaccharide(s), isocyclomaltooligosaccharide-forming enzyme, their preparation and uses” (Hayashibara Co., Ltd., priority 2004, dated 2014).

Legend:
[1] = Thermal stability of ICM (ICG5 aqueous solution heated at 120° C.); assay type: physicochemical; conditions: for Degree of coloring / Purity: 5% (w/v) aqueous solution, 120° C.; for Purity: HPLC
Experimental: ICG5, prepared from soluble starch by the method in Experiment 11 and purified to give a purity of 100% by the method in Experiment 1, was used as material. An aqueous ICG5 solution with a concentration of 5% (w/v) was prepared by dissolving ICG5 in deionized water. Then, 8 ml each of the resulting solution was pored into a glass tube, sealed closely, and then heated at 120° C. for 30 to 90 min. After cooling the solution, the degree of coloring of the solution was measured. Further, the purity of ICG5 in the solution was measured by HPLC. The degree of coloring was defined as an absorbance at 480 nm using a 1 cm-cell.

[2] = test system: small intestinal enzymes
Description: 43, 23-29 (1990), the digestibility of ICM by salivary α-amylase, artificial gastric juice, pancreas amylase, and small intestinal enzymes were investigated using ICG5, used in Experiment 15. […] In Table 18, the digestion (%) means a value calculated by the formula: Digestion (%)=(The amount of reducing saccharides/The amount of the total saccharides)×100 , in respective reaction described above.

[3] = Clathrating action of ICM (amount of compound clathrated, gas-chromatography); assay type: physicochemical; conditions: 3-folds molar amount
Experimental: ICG5 used in Experiment 15, was dissolved in deionized water to make into an aqueous solution containing 20% (w/v) of ICG5. Twenty milliliters of the aqueous solution was admixed with 3-folds amount, on a molar basis to ICG5, of either of four kinds of short chain alcohols, i.e., methanol, ethanol, propanol, and butanol; four kinds of short chain fatty acids, i.e., acetic acid, propionic acid, n-butyric acid, and n-valeic acid; and four kinds of aromatic compounds, i.e., benzyl alcohol, phenethyl alcohol, 4-phenyl-1-propanol, and o-cresol; and then stirred the mixture to homogeneity for allowing ICG5 to clathrate the compound. Successively, each solution was filtrated, and the resulting filtrate was freeze-dried to remove unclathrated compound. In order to measure the amount of compound clathrated in the freeze-dried product, the amount of each compound in each freeze-dried product was determined by gas-chromatography. Alpha-CD was used as a control and subjected to the similar test.

[4] = Reducing power by the Somogyi-Nelson method; assay type: physicochemical
Description: It was concluded that Saccharides I and II were substantially non-reducing saccharides.

OCC1OC2OC3C(CO)OC(OC4C(CO)OC(OC5C(CO)OC(OCC6OC(OC1C(O)C2O)C(O)C(O)C6O)C(O)C5O)C(O)C4O)C(O)C3O [ICG5, cyclo{→6)-α-D-glucopyranosyl-(1→4)-α-D-glucopyranosyl-(1→4)-α-D-glucopyranosyl-(1→4)-.α-D-glucopyranosyl-(1→4)α-D-glucopyranosyl-(1→}]
Degree of coloring ([1]; heating time 0 min): 0.00 A480 nm | Purity ([1]; heating time 0 min): 100% | Degree of coloring ([1]; heating time 30 min): 0.00 A480 nm | Purity ([1]; heating time 30 min): 100% | Degree of coloring ([1]; heating time 60 min): 0.00 A480 nm | Purity ([1]; heating time 60 min): 100% | Degree of coloring ([1]; heating time 90 min): 0.01 A480 nm | Purity ([1]; heating time 90 min): 100% | Thermal stability ([1]; aqueous solution heated to 120° C.): stable under the heating condition | Digestion [2]: 0.2% | Amount of compound clathrated ([3]; objective compound: 4-Phenyl 1-propanol (aromatic compound)): 225.2 mg/g-freeze-dried product | Amount of compound clathrated ([3]; objective compound: Acetic acid (short chain fatty acid)): 82.4 mg/g-freeze-dried product | Amount of compound clathrated ([3]; objective compound: Benzyl alcohol (aromatic compound)): 61.9 mg/g-freeze-dried product | Amount of compound clathrated ([3]; objective compound: Butanol (short chain alcohol)): 82.7 mg/g-freeze-dried product | Amount of compound clathrated ([3]; objective compound: Ethanol (short chain alcohol)): 57.6 mg/g-freeze-dried product | Amount of compound clathrated ([3]; objective compound: Methanol (short chain alcohol)): 33.5 mg/g-freeze-dried product | Amount of compound clathrated ([3]; objective compound: Phenethyl alcohol (aromatic compound)): 10.0 mg/g-freeze-dried product | Amount of compound clathrated ([3]; objective compound: Propanol (short chain alcohol)): 69.2 mg/g-freeze-dried product | Amount of compound clathrated ([3]; objective compound: Propionic acid (short chain fatty acid)): 91.4 mg/g-freeze-dried product | Amount of compound clathrated ([3]; objective compound: n-Butyric acid (short chain fatty acid)): 69.9 mg/g-freeze-dried product | Amount of compound clathrated ([3]; objective compound: n-Valeic acid (short chain fatty acid)): 48.3 mg/g-freeze-dried product | Amount of compound clathrated ([3]; objective compound: o-Cresol (aromatic compound)): 151.5 mg/g-freeze-dried product | Reducing power [4]: less than the measurable limit
